Entries after “also recorded” stand apart in the source; their conditions may differ.
Tests used:
HepG2 cells [1] = experiment: Albumin secretion by HepG2 cells (ELISA of media); format: cell-based, human; conditions: for albumin secretion in media in which one amino acid was omitted: named amino acid omitted, isonitrogenously compensated with the other amino acids
Experimental: (§1) The effects of either the amino acid concentration or the amino acid composition on the acute-phase protein response in a human hepatocellular cell line (HepG2 cell) were studied. As model components, the production of fibrinogen and albumin were studied.
(§2) Cell culture: Human hepatoma HepG2 cells (ATCC HB-8065) were maintained in DMEM supplemented with 10% heat inactivated fetal calf serum (Life Technologies) with 2 mM glutamine and streptomycin/penicillin in Costar T75 flasks at 37° C. in a humidified atmosphere of 95% air-5% CO2. For experiments HepG2 cells were incubated in RPMI-1640 media without fetal calf serum. All experiments were carried out in 6 wells plates.
(§3) Incubations: HepG2 cells were grown in 6 wells plates to confluence, washed with DMEM ([…]) and subsequently incubated during 24-h with IL-6 and the custom media (RPMI-1640; RPMI-1640 select amino kit Gibco BRL). After the incubations, the media were collected and stored at −20° C. until analysis. The cells were then washed with phosphate-buffered saline (PBS) and lysed with 0.1M NaOH. The protein content was determined using the Bio-Rad Protein assay (Dye Reagent Concentrate, Bio-Rad Laboratories, Inc., Hercules Calif., USA) using bovine albumin (Sigma Aldrich) as standard. The data are presented as μg acute-phase protein in the supernatant per milligram protein cell content.
(§4) Antibodies: Rabbit anti-human fibrinogen and horseradish peroxidase (HRP)—conjugated rabbit anti-human fibrinogen were obtained from DakoCytomation (Denmark A/S, Glostrup, Denmark), anti-human albumin, HRP-conjugated anti-human albumin were obtained from Dade Behring B.V. (Leusden, the Netherlands).
(§5) ELISAs: Albumin and fibrinogen: 96-well flat-bottom Costar EIA/RIA plates were coated overnight with primary antibody in PBS at predetermined optimal concentration. After each incubation step, the plates were washed with 0.1% Tween-20 (Merck Eurolab B.V., Roden, the Netherlands) in PBS. After washing, the plates were blocked with 5% Protifar (Nutricia B.V., Zoetermeer, the Netherlands) in PBS during 90 min. Subsequently, the samples and antigen were incubated in 0.1% Tween-20 in PBS during 90 min. Next, the plates were incubated with HRP-conjugated antibodies in 0.1% Tween-20 in PBS during 90 min. The colorimetric reaction was carried out with undiluted 1-Step Ultra TMB-ELISA (Pierce, Rockland, Ill., USA). The reaction was stopped with 2 M sulphuric acid. The absorbances of the samples were measured at λ=450 nm.

HepG2 cells [2] = experiment: Fibrinogen secretion by HepG2 cells (ELISA of media); format: cell-based, human; conditions: for fibrinogen secretion in media in which one amino acid was omitted: named amino acid omitted, isonitrogenously compensated with the other amino acids; for inhibition of IL-6 induced fibrinogen secretion: IL-1β 10 ng/ml, insulin 1 μM
Experimental: as §1, §2, §3, §4, §5

[3] = added in combination with IL-6 10 ng/ml, n=6

| Molecule | albumin secretion in media in which one amino acid was omitted (HepG2 cells [1]) | fibrinogen secretion in media in which one amino acid was omitted (HepG2 cells [2]) | further results |
| --- | --- | --- | --- |
| N=C(N)NCCC[C@H](N)C(=O)O [Arg, arginine] | significantly decreased; also recorded: significantly inhibited | significantly decreased; also recorded: significantly inhibited | – |
| N[C@@H](CO)C(=O)O [Ser, serine] | significantly decreased; also recorded: significantly inhibited | significantly decreased; also recorded: significantly inhibited | – |
| N[C@@H](CS)C(=O)O [cysteine] | significantly decreased; also recorded: significantly inhibited | significantly decreased; also recorded: significantly inhibited | – |
| C[C@@H]1C[C@H]2[C@@H]3CCC4=CC(=O)C=C[C@]4(C)[C@@]3(F)[C@@H](O)C[C@]2(C)[C@@]1(O)C(=O)CO [dexamethasone, reference compound] | – | – | enhancing effect on IL-6 induced fibrinogen secretion (HepG2 cells [2]; added in combination with IL-6 10 ng/ml, dexamethasone 1 μM, n=6): 20% |
| IL-1β: cytokine, used at 10 ng/ml [reference compound] | – | – | inhibition of IL-6 induced fibrinogen secretion (HepG2 cells [2]; [3]): approximately 25% |
| IL-6: Human IL-6 obtained from Sigma Aldrich [reference compound] | – | – | albumin secretion (excretion) from HepG2 cells (HepG2 cells [1]; incubation with IL-6 or other cytokines/hormones, 24-h, n=6): no significant effects; also recorded: no effect; fibrinogen secretion (excretion) from HepG2 cells (HepG2 cells [2]; incubation with IL-6, range 1-10 ng/ml, 24-h, n=6): concentration-dependent relationship; also recorded: significantly induces |
| insulin [reference compound] | – | – | inhibition of IL-6 induced fibrinogen secretion (HepG2 cells [2]; [3]): 50% |
